Data: EP0930067A2, “MMP inhibitors for the treatment of ocular angiogenesis” (Pfizer Products Inc., priority 1997, dated 1999)

Tested on: angiogenesis
Assay: Inhibition of angiogenesis: in vivo rat model, pellet with angiogenic material (VEGF) and MMP inhibitor, corneal neovascularization scored after one week
Conditions: pellet implant
Procedure: Inhibition of Angiogenesis
The activity of MMP inhibitors, preferably MMP-2 or MMP-9 inhibitors, for inhibiting angiogenesis can be determined according to the following in vivo rat model. A 10µg pellet containing an angiogenic material, such as vascular endothelial growth factor (VEGF) and a matrix metalloproteinase inhibitor or placebo, is implanted intraorbitally. After one week the eyes are removed and the degree of inhibition of angiogenesis is determined qualitatively. Inhibitors with IC50's of less than 10nm reduced angiogenesis. […]

Structure (SMILES)	% Response (10ng + VEGF)	Corneal Neovascularization (#Positive Response/#Response) (10ng + VEGF)	% Response (25ng + VEGF)	Corneal Neovascularization (#Positive Response/#Response) (25ng + VEGF)	% Response (50ng + VEGF)	Corneal Neovascularization (#Positive Response/#Response) (50ng + VEGF)	% Response (100ng + VEGF)	Corneal Neovascularization (#Positive Response/#Response) (100ng + VEGF)
CC(C)(NS(=O)(=O)c1ccc(Oc2ccc(F)cc2)cc1)C(=O)NO [2-[4-(4-Fluoro-phenoxy)-benzenesulfonylamino]-N-hydroxy-2-methyl-propionamide]	20%	1/5	17%	1/6	0%	0/5	0%	0/5
O=C(NO)C1C2CCC(O2)C1S(=O)(=O)c1ccc(Oc2ccccc2)cc1 (stereo not drawn) [3-(4-Phenoxy-benzenesulfonyl)-7-oxa-bicyclo[2.2.1]heptane-2-carboxylic acid hydroxyamide]	25%	4/4	60%	3/5	40%	2/5	20%	1/5
O=C(O)CCN(C1(C(=O)NO)CCCC1)S(=O)(=O)c1ccc(Oc2ccc(F)cc2)cc1 [3-[[4-(4-Fluoro-phenoxy)-benzenesulfonyl]-(1-hydroxycarbamoyl-cyclopentyl)-amino]-propionic acid]	25%	1/4	17%	1/6	0%	0/5	0%	0/5
